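The compound was tested at five concentrations on cells cultured in 96-well plates, with a 48-hour exposure period. GI50 marks 50% less growth.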 Active and inactive are the calls of the source. No stated cut-off is given here; in the data, active = GI50 up to about 1.1 µM and inactive = higher.
Columns and labels:
Assay in all cases: NCI anticancer screen, dose series, 48 h
NCI-H460 = tested on: NCI-H460
MDA-MB-231 = tested on: MDA-MB-231
K562 = tested on: K562
OVCAR-3 = tested on: OVCAR-3
HCC 2998 = tested on: HCC 2998
UACC-257 = tested on: UACC-257
OVCAR-4 = tested on: OVCAR-4
SK-MEL-2 = tested on: SK-MEL-2
PC-3 = tested on: PC-3
TK-10 = tested on: TK-10
CAKI-1 = tested on: CAKI-1
UO-31 = tested on: UO-31
HCT-15 = tested on: HCT-15
786-0 = tested on: 786-0
COLO 205 = tested on: COLO 205
NCI-H226 = tested on: NCI-H226
SK-MEL-5 = tested on: SK-MEL-5
SN12C = tested on: SN12C
IGROV-1 = tested on: IGROV-1
RPMI-8226 = tested on: RPMI-8226

Q: For COc1ccc(C(SCCO)(c2ccc(OC)cc2)c2ccc(OC)cc2)cc1, which GI50 (NCI-H460) is on record?
A: 15 µM (inactive)

Q: And the GI50 (MDA-MB-231)?
A: 19.8 µM (inactive)

Q: And the GI50 (K562)?
A: 3.19 µM (inactive)

Q: What about the GI50 (OVCAR-3) of the same compound?
A: 10.5 µM (inactive)

Q: What about the GI50 (HCC 2998) of the same compound?
A: 14.4 µM (inactive)

Q: And the GI50 (UACC-257)?
A: 13.5 µM (inactive)

Q: And the GI50 (OVCAR-4)?
A: 21.6 µM (inactive)

Q: And the GI50 (SK-MEL-2)?
A: 14.1 µM (inactive)

Q: What about the GI50 (PC-3) of the same compound?
A: 13.8 µM (inactive)

Q: And the GI50 (TK-10)?
A: 21.8 µM (inactive)

Q: And the GI50 (CAKI-1)?
A: 20.6 µM (inactive)

Q: What about the GI50 (UO-31) of the same compound?
A: 13 µM (inactive)

Q: What about the GI50 (HCT-15) of the same compound?
A: 11.4 µM

Q: What about the GI50 (786-0) of the same compound?
A: 14.2 µM (inactive)

Q: What about the GI50 (COLO 205) of the same compound?
A: 11.2 µM (inactive)

Q: What about the GI50 (NCI-H226) of the same compound?
A: 13.9 µM (inactive)

Q: And the GI50 (SK-MEL-5)?
A: 12.2 µM (inactive)

Q: What about the GI50 (SN12C) of the same compound?
A: 17.5 µM (inactive)

Q: With CC(C)(C)OC(=O)NC(Cc1ccc([N+](=O)[O-])cc1)C(=O)NC(CCCCNC(=O)OCc1ccccc1)C(=O)ON1C(=O)CCC1=O (stereo not drawn) as the compound, how does the GI50 (NCI-H460) read?
A: > 100 µM (inactive)

Q: And the GI50 (MDA-MB-231)?
A: 43.8 µM (inactive)

Q: What about the GI50 (K562) of the same compound?
A: 14.4 µM (inactive)

Q: And the GI50 (OVCAR-3)?
A: > 100 µM (inactive)

Q: And the GI50 (HCC 2998)?
A: 24.4 µM (inactive)

Q: And the GI50 (IGROV-1)?
A: > 100 µM (inactive)

Q: And the GI50 (OVCAR-4)?
A: > 100 µM (inactive)

Q: What about the GI50 (PC-3) of the same compound?
A: 52.5 µM (inactive)

Q: And the GI50 (TK-10)?
A: > 100 µM (inactive)

Q: What about the GI50 (CAKI-1) of the same compound?
A: > 100 µM (inactive)

Q: And the GI50 (RPMI-8226)?
A: 57 µM (inactive)

Q: And the GI50 (UO-31)?
A: > 100 µM (inactive)

Q: And the GI50 (HCT-15)?
A: > 100 µM

Q: What about the GI50 (786-0) of the same compound?
A: > 100 µM (inactive)

Q: What about the GI50 (COLO 205) of the same compound?
A: > 100 µM (inactive)

Q: And the GI50 (NCI-H226)?
A: > 100 µM (inactive)

Q: What about the GI50 (SK-MEL-5) of the same compound?
A: > 100 µM (inactive)

Q: And the GI50 (SN12C)?
A: 70.6 µM (inactive)

Q: COc1ccc(-c2c(C#N)c(N)n(C3OCC(O)C(O)C3O)c(=S)c2C#N)cc1 (stereo not drawn) was tested. Which GI50 (NCI-H460) did it give?
A: > 100 µM (inactive)

Q: What about the GI50 (MDA-MB-231) of the same compound?
A: > 100 µM (inactive)

Q: And the GI50 (K562)?
A: > 100 µM (inactive)

Q: What about the GI50 (OVCAR-3) of the same compound?
A: > 100 µM (inactive)

Q: What about the GI50 (HCC 2998) of the same compound?
A: > 100 µM (inactive)

Q: And the GI50 (IGROV-1)?
A: > 100 µM (inactive)

Q: What about the GI50 (SK-MEL-2) of the same compound?
A: 21.6 µM (inactive)

Q: And the GI50 (PC-3)?
A: > 100 µM (inactive)

Q: What about the GI50 (TK-10) of the same compound?
A: > 100 µM (inactive)

Q: And the GI50 (CAKI-1)?
A: > 100 µM (inactive)

Q: And the GI50 (RPMI-8226)?
A: > 100 µM (inactive)

Q: What about the GI50 (UO-31) of the same compound?
A: > 100 µM (inactive)

Q: And the GI50 (HCT-15)?
A: > 100 µM

Q: And the GI50 (786-0)?
A: > 100 µM (inactive)

Q: What about the GI50 (NCI-H226) of the same compound?
A: > 100 µM (inactive)

Q: What about the GI50 (SK-MEL-5) of the same compound?
A: > 100 µM (inactive)

Q: And the GI50 (SN12C)?
A: > 100 µM (inactive)

Q: Which results are given for CCOC(=O)COc1cc(-c2ccccc2F)nc2cc3c(cc12)OCO3?
A: GI50 (MDA-MB-231): > 100 µM (inactive); GI50 (K562): 38.1 µM (inactive); GI50 (OVCAR-3): > 10 µM (inactive); GI50 (HCC 2998): > 100 µM (inactive); GI50 (IGROV-1): 90.8 µM (inactive); GI50 (UACC-257): > 100 µM (inactive); GI50 (SK-MEL-2): > 100 µM (inactive); GI50 (PC-3): > 100 µM (inactive); GI50 (TK-10): > 100 µM (inactive); GI50 (CAKI-1): > 100 µM (inactive); GI50 (RPMI-8226): 42 µM (inactive); GI50 (HCT-15): 39.9 µM; GI50 (786-0): > 100 µM (inactive); GI50 (COLO 205): > 100 µM (inactive); GI50 (NCI-H226): > 100 µM (inactive); GI50 (SK-MEL-5): 71.9 µM (inactive); GI50 (SN12C): > 100 µM (inactive)

Q: What does the source list for COc1cc(CC(C)NC(C)=O)cc(OC)c1 (stereo not drawn)?
A: GI50 (NCI-H460): > 100 µM (inactive); GI50 (MDA-MB-231): > 100 µM (inactive); GI50 (K562): > 100 µM (inactive); GI50 (OVCAR-3): > 100 µM (inactive); GI50 (HCC 2998): > 100 µM (inactive); GI50 (IGROV-1): > 100 µM (inactive); GI50 (UACC-257): > 100 µM (inactive); GI50 (SK-MEL-2): > 100 µM (inactive); GI50 (PC-3): > 100 µM (inactive); GI50 (TK-10): > 100 µM (inactive); GI50 (CAKI-1): > 100 µM (inactive); GI50 (RPMI-8226): > 100 µM (inactive); GI50 (UO-31): > 100 µM (inactive); GI50 (HCT-15): > 100 µM; GI50 (786-0): > 100 µM (inactive); GI50 (COLO 205): > 100 µM (inactive); GI50 (NCI-H226): > 100 µM (inactive); GI50 (SK-MEL-5): > 100 µM (inactive); GI50 (SN12C): > 100 µM (inactive)

Q: Brc1ccc(/N=N/N2CCCCC2)cc1 was tested. Which GI50 (NCI-H460) did it give?
A: 45 µM (inactive)

Q: And the GI50 (MDA-MB-231)?
A: > 100 µM (inactive)

Q: What about the GI50 (K562) of the same compound?
A: 27.4 µM (inactive)

Q: What about the GI50 (OVCAR-3) of the same compound?
A: 42.1 µM (inactive)

Q: And the GI50 (IGROV-1)?
A: 44.6 µM (inactive)

Q: What about the GI50 (UACC-257) of the same compound?
A: 49.3 µM (inactive)

Q: And the GI50 (OVCAR-4)?
A: 74.8 µM (inactive)

Q: And the GI50 (SK-MEL-2)?
A: 20.3 µM (inactive)

Q: What about the GI50 (PC-3) of the same compound?
A: 35.2 µM (inactive)

Q: And the GI50 (TK-10)?
A: 59.2 µM (inactive)

Q: What about the GI50 (CAKI-1) of the same compound?
A: 88.1 µM (inactive)

Q: And the GI50 (RPMI-8226)?
A: 14.1 µM (inactive)

Q: And the GI50 (UO-31)?
A: 60 µM (inactive)

Q: And the GI50 (HCT-15)?
A: 27.5 µM

Q: And the GI50 (786-0)?
A: 44.3 µM (inactive)

Q: And the GI50 (COLO 205)?
A: 69.3 µM (inactive)

Q: What about the GI50 (NCI-H226) of the same compound?
A: > 100 µM (inactive)

Q: And the GI50 (SK-MEL-5)?
A: 34.5 µM (inactive)

Q: And the GI50 (SN12C)?
A: 57.9 µM (inactive)

From ChEMBL document CHEMBL1201862, “PubChem BioAssay data set” (2004)
